Assay results reported in PubChem BioAssay (NCI).
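The compound was tested at five concentrations on cells cultured in 96-well plates, with a 48-hour exposure period. At the GI50, growth is halved. TGI marks complete inhibition of growth.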

Assays:
Test in all cases: inhibition of tumour cell growth, NCI panel, 48 h
[1] = tested on: OVCAR-4 ovarian
[2] = tested on: A498 renal
[3] = tested on: A549 NSCLC
[4] = tested on: COLO 205 colon
[5] = tested on: KM12 colon
[6] = tested on: MALME-3M melanoma
[7] = tested on: SK-MEL-2 melanoma
[8] = tested on: SF-539 CNS
[9] = tested on: SR leukemia
[10] = tested on: HS 578T breast

Compound | GI50 [1] | TGI [1] | GI50 [2] | TGI [2] | GI50 [3] | TGI [3] | GI50 [4] | TGI [4] | GI50 [5] | TGI [5] | GI50 [6] | TGI [6] | GI50 [7] | TGI [7] | GI50 [8] | TGI [8] | GI50 [9] | TGI [9] | TGI [10] | GI50 [10]
CC(=O)[O][Ga]([Cl])[O]C(C)=O | > 100 µM | > 100 µM | > 100 µM | > 100 µM | > 100 µM | > 100 µM | > 100 µM | > 100 µM | > 100 µM | > 100 µM | > 100 µM | > 100 µM | > 100 µM | > 100 µM | > 100 µM | > 100 µM | > 100 µM | > 100 µM | – | –
Clc1ccc(SC(/C=C/NNC2=NC(c3ccccc3)C(c3ccccc3)=NN2)c2ccccc2)cc1 (stereo not drawn) | – | 68.2 µM | – | > 100 µM | – | > 100 µM | – | 45.6 µM | – | 67.2 µM | – | 39.8 µM | – | 40.7 µM | – | > 100 µM | – | – | – | –
CN(C)CC(C)(C)C(=O)/C=C/c1ccc(/C=C/C(=O)C(C)(C)CN(C)C)cc1 | – | 2.29 µM | – | 3.46 µM | – | 7.4 µM | – | 2.24 µM | – | 3.25 µM | – | 3.97 µM | – | – | – | 3.81 µM | – | 5.45 µM | – | –
O=C1c2ccccc2C(Br)(Br)c2ccccc21 | – | > 31.6 µM | – | – | – | > 31.6 µM | – | > 31.6 µM | – | > 100 µM | – | > 31.6 µM | – | > 31.6 µM | – | > 100 µM | – | > 31.6 µM | – | –
COc1ccc(-c2cc(=O)c3ccc(C)nc3[nH]2)cc1 | – | > 100 µM | – | > 100 µM | – | > 100 µM | – | > 100 µM | – | > 100 µM | – | > 100 µM | – | > 100 µM | – | > 100 µM | – | – | > 100 µM | –
C[N-]c1nnnn1C.[Au+].c1ccc([PH+](c2ccccc2)c2ccccc2)cc1 | 3.19 µM | 12.9 µM | – | – | 14.7 µM | 68.7 µM | 3.33 µM | 8.81 µM | 7.09 µM | 28.6 µM | 1.42 µM | 2.91 µM | 1.66 µM | 3.78 µM | 2.38 µM | 7.39 µM | 1.11 µM | 4.12 µM | – | –
COc1cc(-c2cc3ncccc3c3nc(N)c4cccnc4c23)cc(OC)c1OC | 3.16 µM | > 100 µM | – | – | 0.434 µM | 12.9 µM | 0.246 µM | 18.9 µM | 0.36 µM | 33.4 µM | – | – | 0.533 µM | 8.86 µM | 0.361 µM | 2.6 µM | 0.124 µM | 4.97 µM | > 100 µM | 0.692 µM
C=C1C(O)C2C(=C(CCc3ccccc3)C13CC3)C(=O)C(C)(CO)C2O (stereo not drawn) | > 100 µM | > 100 µM | – | – | > 100 µM | > 100 µM | > 100 µM | > 100 µM | > 100 µM | > 100 µM | > 100 µM | > 100 µM | > 100 µM | > 100 µM | > 100 µM | > 100 µM | 38.6 µM | > 100 µM | 99.8 µM | 14.3 µM
O=C(O)CCCCCCC[C@H]1S[C@H]1CCCCCCO | – | > 100 µM | – | – | – | – | – | > 100 µM | – | > 100 µM | – | > 100 µM | – | > 100 µM | – | > 100 µM | – | > 100 µM | – | –
CC(C)CC(NC(=O)c1cccc(O)c1O)C(=O)NCc1cc(CNC(=O)C(CC(C)C)NC(=O)c2cccc(O)c2O)cc(CNC(=O)C(CC(C)C)NC(=O)c2cccc(O)c2O)c1 (stereo not drawn) | – | 56.5 µM | – | > 100 µM | – | 50.3 µM | – | 34.3 µM | – | 41.9 µM | – | 39.5 µM | – | 29 µM | – | 20.9 µM | – | 32.2 µM | – | –
CC(=O)[CH-]C(C)=O.CC(=O)[CH-]C(C)=O.[CH2-]CCC.[CH2-]CCC.[Sn+4] | 1.31 µM | 2.61 µM | 0.259 µM | 0.73 µM | 1.88 µM | 4.15 µM | 0.304 µM | 1.05 µM | 1.11 µM | 2.33 µM | 0.2 µM | 1.07 µM | 0.309 µM | 1.22 µM | 0.61 µM | 1.91 µM | 0.382 µM | > 100 µM | – | –
COc1cccc(-c2nc3sccn3c2-c2ccnc(NCCCNS(=O)(=O)c3cccc(F)c3)c2)c1 | – | – | – | – | 2.99 µM | > 100 µM | 2.22 µM | 11.1 µM | 3.17 µM | 27.3 µM | 2.23 µM | 7.24 µM | 2.18 µM | 5.44 µM | 3.87 µM | > 100 µM | 2.59 µM | > 100 µM | > 100 µM | 3 µM
[Cl-].[O-]/N=C(\c1ccccc1)c1ccccn1.[O-]/N=C(\c1ccccc1)c1ccccn1.[O-]/N=C(\c1ccccc1)c1ccccn1.[Sm+3] | 43.3 µM | > 100 µM | 58.3 µM | > 100 µM | 35.8 µM | > 100 µM | 31.3 µM | > 100 µM | 17.6 µM | > 100 µM | 24.6 µM | 88.6 µM | 22 µM | 52.8 µM | 28.1 µM | 75.2 µM | – | – | – | –
COCCCNC(=O)C1C(=O)N(CCCOC)C(=O)/C1=N\N (stereo not drawn) | – | > 100 µM | – | > 100 µM | – | > 100 µM | – | > 100 µM | – | > 100 µM | – | > 100 µM | – | > 100 µM | – | > 100 µM | – | – | – | –
COc1ccc(OC)c(/C(C)=N/NC(N)=S)c1 | – | > 100 µM | – | > 100 µM | – | > 100 µM | – | > 100 µM | – | > 100 µM | – | > 100 µM | – | > 100 µM | – | > 100 µM | – | > 100 µM | – | –
CC(C)CCC(=O)c1ccoc1 | – | > 100 µM | – | – | – | > 100 µM | – | > 100 µM | – | > 100 µM | – | > 100 µM | – | > 100 µM | – | > 100 µM | – | > 100 µM | > 100 µM | –
Cc1sc2nc(-c3ccncc3)c(/C=N/N=C(N)N)n2c1C | 67.3 µM | > 100 µM | 25.8 µM | > 100 µM | – | – | – | – | 14.7 µM | 37.2 µM | – | – | – | – | 51.9 µM | > 100 µM | – | – | – | –
O=c1nc(/C=C/c2ccccc2Cl)cc2n1CCN2CCO | – | > 100 µM | – | – | – | – | – | > 100 µM | – | > 100 µM | – | > 100 µM | – | > 100 µM | – | > 100 µM | – | > 100 µM | – | –
